{
  "source": "patent US6667163B2",
  "about": "“Polynucleotide sequences encoding mouse sphingosine-1-phosphate phosphatase” (Merck & Co., Inc., priority 2000, dated 2003)",
  "molecules": {"B1": {"name": "mSPP1b: murine mSPP1b protein of SEQ ID NO:4, divergent 5′ end, lacks the activity of mSPP1; counterscreen or negative control (protein)", "chain": "MGEELGHCVQMRKSNERGKRFREQRVQRAQGKVSHHTKEEEETRVRQMSQGWEEKEYGYYLFCLGTELGNELFYILFFPFWIWNLDPFVGRRLVIIWVLVMYLGQCTKDIIRWPRPASPPVIKLEVFYNSEYSMPSTHAMSGTAIPIAMFLLTYGRWQYPLIYGLILIPCWSSLVCLSRIYMGMHSILDVIAGFLYTILILIIFYPLVDLIDNFNQTYKYAPLIIIGLHLILGIFSFTLDTWSTSRGDTAEILGSGAGIACGSHAAYTLGLSLEPSLHMLPLAIPPLTVTLFGKAILRIVLGMLLVLFVRDIMKKITIPLACKLSSIPCHDIRQARQHMEVELPYRYITYGMVGFSITFLVPYVFSFIGIS"}, "B2": {"name": "mSPP1: murine sphingosine-1-phosphate phosphatase, recombinant enzyme having the amino acid sequence of SEQ ID NO:3 (protein)", "chain": "MSLGQRLALLASRLQEPQRVASFQRLCGVEVPLSSPAADEDAETEVRGAPGEPRRRGRQPGAEDSPAKADCCGAPNGVRNGLAAEPGPTGPRRAGSQRRNSLTGEEGELVKVSNLPLYYLFCLGTELGNELFYILFFPFWIWNLDPFVGRRLVIIWVLVMYLGQCTKDIIRWPRPASPPVIKLEVFYNSEYSMPSTHAMSGTAIPIAMFLLTYGRWQYPLIYGLILIPCWSSLVCLSRIYMGMHSILDVIAGFLYTILILIIFYPLVDLIDNFNQTYKYAPLIIIGLHLILGIFSFTLDTWSTSRGDTAEILGSGAGIACGSHAAYTLGLSLEPSLHMLPLAIPPLTVTLFGKAILRIVLGMLLVLFVRDIMKKITIPLACKLSSIPCHDIRQARQHMEVELPYRYITYGMVGFSITFLVPYVFSFIGIS"}},
  "key": {"[1]": {"system": "Yeast (lbp1Δ::LEU2 sur2-2)", "experiment": "Australifungin sensitivity, microtiter broth dilution assay in transformed yeast", "assay_type": "cell-based", "method": "Yeast cells defective in LBP1 shunt sphingolipid metabolites into phosphatidylethanolamine and phosphatidylcholine synthesis and become extremely sensitive to ceramide synthase inhibition by the antifungal agent, australifungin. To test whether the mouse SPP phosphatases can substitute for the function of LBP1, mSPP1pRS414-ADH, mSPP1bpRS414-ADH, or control vector (pRS414-ADH) were transformed into lbp1Δ::LEU2sur2-2 and sensitivity to australifungin was determined using a microtiter broth dilution assay. Transformants were incubated overnight in Synthetic Complete-Tryptophan (SC-TRP) Yeast Nitrogen Base medium (DIFCO) containing 2% glucose and 0.078% tryptophan-free supplement mixture (BIO101) at […]. Cells were inoculated at an OD600=0.001 (˜1×10^4 yeast cells/ml), and serial 2-fold dilutions of australifungin were made from 5 μg/ml. Growth after 48 h at 30° C. was measured by absorbance readings with a Rainbow spectrometer (TECAN)."}, "mSPP1": {"target": "T1, mSPP1 (Mus musculus, UniProt Q9JI99)", "T1 construct": "expressed in transfected cells; host or cells: HEK293 (human embryonic kidney), transient CaCl2 transfection with mSPP1-pcDNA3.1; membrane pellet (40,000 x g)", "T1 sequence (Q9JI99 1-430)": "B2 chain", "experiment": "Substrate degradation by membrane fractions from HEK293 cells transfected with mSPP1", "assay_type": "biochemical, murine"}, "[2]": {"system": "[3H]dihydrosphingosine-1-phosphate", "experiment": "Dihydrosphingosine-1-phosphate phosphohydrolase activity in microsomal membranes of transformed yeast", "assay_type": "biochemical", "details": "yeast lbp1Δ::LEU2 sur2-2 expressing the protein, compared to the vector control", "description": "To test whether mSPP1 and mSPP1b encoded SPP phosphatases with properties similar to yeast Lbp1p, the mouse genes were subcloned into pRS414-ADH for expression of the genes in LBP1 mutants under the control of a strong, constitutive yeast promoter (ADH). The resulting plasmids were mSPP1pRS414-ADH and mSPP1bpRS414-ADH. Yeast (lbp1Δ::LEU2 sur2-2) were transformed with mSPP1pRS414-ADH, mSPP1bpRS414-ADH, or control vector (pRS414-ADH) using the lithium acetate/polyethylene glycol procedure and plated onto Synthetic Complete-Tryptophan (SC-TRP) Yeast Nitrogen Base medium (DIFCO) containing 1.5% agar, 2% glucose and 0.078% tryptophan-free supplement mixture (BIO101). Transformants were inoculated into SC-TRP media and incubated overnight at 30° C. to an OD600 of 1.0. […]\nMicrosomal membranes were collected by ultracentrifugation (100,000×g, 1 hour) and suspended in disruption buffer containing 20% glycerol. Dihydrosphingosine-1-phosphate phosphohydrolase activity was measured in 200 μl containing 50 mM KPO4 pH 7.2, 0.02% tergitol (NP-40), 2 μM [^3H]dihydrosphingosine-1-phosphate (40,000 cpm), 2 mM semicarbazide, and 0.3 to 5 μg of membrane protein. […] One ml of chloroform:methanol (3:2) was added and 50 μl of the chloroform layer was counted by liquid scintillation."}, "[3]": {"system": "[3H]dihydrosphingosine-1-phosphate", "experiment": "Dihydrosphingosine phosphate phosphohydrolase activity in membranes of transfected HEK293 cells", "assay_type": "biochemical, Human", "details": "compared to vector transfected cells or mSPP1b transfected cells", "method": "Microsomal membranes were collected by ultracentrifugation (100,000×g, 1 hour) and suspended in disruption buffer containing 20% glycerol. Dihydrosphingosine-1-phosphate phosphohydrolase activity was measured in 200 μl containing 50 mM KPO4 pH 7.2, 0.02% tergitol (NP-40), 2 μM [^3H]dihydrosphingosine-1-phosphate (40,000 cpm), 2 mM semicarbazide, and 0.3 to 5 μg of membrane protein. Following a 45 min incubation at 37° C., the assay was terminated with 200 μl 7 M NH4OH. One ml of chloroform:methanol (3:2) was added and 50 μl of the chloroform layer was counted by liquid scintillation.\nTransfection-quality DNA was prepared for plasmids mSPP1-pcDNA3.1 and mSPP1b-pcDNA3.1 using endotoxin-free QIAGEN Maxi protocol (QIAGEN, Chatsworth, Calif.). Human embryonic kidney (HEK293) cells were maintained in high glucose Dulbecco's modified Eagle's medium (DMEM) containing 100 U/ml penicillin, 100 μg/ml streptomycin and 2 mM L-glutamine supplemented with 10% fetal bovine serum. Cells (1×10^6) were transfected with 20 μg of plasmid DNA by the CaCl2 procedure using a kit from SPECIALTY MEDIA (Lavallette, N.J.). Cells were harvested 48 hours after transfection with enzyme-free dissociation solution (SPECIALTY MEDIA, Lavallette, N.J.). […] Dihydrosphingosine phosphate phosphohydrolase activity was measured as described in Example 4."}, "NIH 3T3 fibroblasts": {"system": "NIH 3T3 fibroblasts", "experiment": "Enforced expression of mSPP1 in NIH 3T3 fibroblasts: survival and apoptosis", "assay_type": "cell-based", "details": "enforced expression in NIH 3T3 fibroblasts"}},
  "data": [
    {"molecule": "CCCCCC[C@@H](C)C1=C(O)C(=O)[C@@H]2[C@H](O)[C@H](C)C[C@H](O)[C@H]2[C@]1(C)C(=O)/C=C\\O", "note": "[australifungin]", "values": [
      {"measurement": "increase in the MIC90 of australifungin", "setting": "[1]; lbp1Δsur2-2 mutant expressing mSPP1, compared to vector transformed mutants, growth after 48 h at 30° C.", "result": 64, "unit": "fold"},
      {"measurement": "australifungin sensitivity", "setting": "[1]; lbp1Δsur2-2 mutant expressing mSPP1b", "result": "did not alter"}
    ]},
    {"molecule": "ceramide-1-phosphate", "values": [
      {"measurement": "degradation of substrate by mSPP1 membrane fractions", "setting": "mSPP1", "result": "not"}
    ]},
    {"molecule": "phosphatidic acid", "values": [
      {"measurement": "degradation of substrate by mSPP1 membrane fractions", "setting": "mSPP1", "result": "not"}
    ]},
    {"molecule": "CCCCCCCCCCCCC/C=C/[C@@H](O)[C@@H](N)COP(=O)(O)O", "note": "[SPP, Sphingosine-1-phosphate]", "values": [
      {"measurement": "degradation of substrate by mSPP1 membrane fractions", "setting": "mSPP1", "result": "markedly degraded"}
    ]},
    {"molecule": "lysophosphatidic acid", "values": [
      {"measurement": "degradation of substrate by mSPP1 membrane fractions", "setting": "mSPP1", "result": "not"}
    ]},
    {"molecule": "B1", "values": [
      {"measurement": "increase in membrane dihydrosphingosine-1-phosphate phosphohydrolase activity", "setting": "[2]", "result": "same level of phosphohydrolase activity as control"}
    ]},
    {"molecule": "B2", "values": [
      {"measurement": "increase in dihydrosphingosine phosphate phosphohydrolase activity", "setting": "[3]", "result": "4 to 5", "unit": "fold"},
      {"measurement": "increase in membrane dihydrosphingosine-1-phosphate phosphohydrolase activity", "setting": "[2]", "result": "3 to 4", "unit": "fold"},
      {"measurement": "apoptosis", "setting": "NIH 3T3 fibroblasts", "result": "induced the characteristic traits of apoptosis"},
      {"measurement": "cell survival", "setting": "NIH 3T3 fibroblasts", "result": "markedly decreased survival"}
    ]}
  ]
}
